Activity calls are given as the source filed them. No rule for the calls is given here.
Test system: CCRIS mutagenicity, Ames/micronucleus/aberration tests
Test: CCRIS mutagenicity studies
[1] = Test System: AMES SALMONELLA TYPHIMURIUM, Strain/Indicator: TA102, Metabolic Activation: NONE, Method: PREINCUBATION
[2] = Test System: AMES SALMONELLA TYPHIMURIUM, Strain/Indicator: TA102, Metabolic Activation: RAT, LIVER, S-9, AROCLOR 1254, Method: PREINCUBATION

`c1ccncc1` was tested, and the mutagenic call (Test System: AMES SALMONELLA TYPHIMURIUM, Strain/Indicator: TA98, Metabolic Activation: HAMSTER LIVER S-9, AROCLOR 1254, 10%, Method: PREINCUBATION) was “inactive; negative”, the mutagenic call (Test System: AMES SALMONELLA TYPHIMURIUM, Strain/Indicator: TA98, Metabolic Activation: NONE, Method: PREINCUBATION) was “inactive; negative” and the mutagenic call (Test System: AMES SALMONELLA TYPHIMURIUM, Strain/Indicator: TA98, Metabolic Activation: RAT LIVER S-9, AROCLOR 1254, 10%, Method: PREINCUBATION) was “inactive; negative”. For the same compound, the mutagenic call (Test System: AMES SALMONELLA TYPHIMURIUM, Strain/Indicator: TA98, Metabolic Activation: RAT LIVER S-9, PHENOBARBITAL AND BETA-NAPHTHOFLAVONE, Method: PREINCUBATION) was “inactive; negative”, the mutagenic call (Test System: AMES SALMONELLA TYPHIMURIUM, Strain/Indicator: TA98, Metabolic Activation: RAT, LIVER, S-9, AROCLOR 1254, Method: PREINCUBATION) was “inactive; negative” and the mutagenic call (Test System: AMES SALMONELLA TYPHIMURIUM, Strain/Indicator: TA100, Metabolic Activation: HAMSTER LIVER S-9, AROCLOR 1254, 10%, Method: PREINCUBATION) was “inactive; negative”. For the same compound, the mutagenic call (Test System: AMES SALMONELLA TYPHIMURIUM, Strain/Indicator: TA100, Metabolic Activation: NONE, Method: PREINCUBATION) was “inactive; negative”, the mutagenic call (Test System: AMES SALMONELLA TYPHIMURIUM, Strain/Indicator: TA100, Metabolic Activation: RAT LIVER S-9, AROCLOR 1254, 10%, Method: PREINCUBATION) was “inactive; negative” and the mutagenic call (Test System: AMES SALMONELLA TYPHIMURIUM, Strain/Indicator: TA100, Metabolic Activation: RAT LIVER S-9, PHENOBARBITAL AND BETA-NAPHTHOFLAVONE, Method: PREINCUBATION) was “inactive; negative”. The mutagenic call (Test System: AMES SALMONELLA TYPHIMURIUM, Strain/Indicator: TA100, Metabolic Activation: RAT, LIVER, S-9, AROCLOR 1254, Method: PREINCUBATION) was “inactive; negative”, the mutagenic call [1] was “inactive; negative” and the mutagenic call [2] was “inactive; negative”. For the same compound, the mutagenic call (Test System: AMES SALMONELLA TYPHIMURIUM, Strain/Indicator: TA1535, Metabolic Activation: HAMSTER LIVER S-9, AROCLOR 1254, 10%, Method: PREINCUBATION) was “inactive; negative”, the mutagenic call (Test System: AMES SALMONELLA TYPHIMURIUM, Strain/Indicator: TA1535, Metabolic Activation: NONE, Method: PREINCUBATION) was “inactive; negative” and the mutagenic call (Test System: AMES SALMONELLA TYPHIMURIUM, Strain/Indicator: TA1535, Metabolic Activation: RAT LIVER S-9, AROCLOR 1254, 10%, Method: PREINCUBATION) was “inactive; negative”. The mutagenic call (Test System: AMES SALMONELLA TYPHIMURIUM, Strain/Indicator: TA1535, Metabolic Activation: RAT LIVER S-9, PHENOBARBITAL AND BETA-NAPHTHOFLAVONE, Method: PREINCUBATION) was “inactive; negative”, the mutagenic call (Test System: AMES SALMONELLA TYPHIMURIUM, Strain/Indicator: TA1537, Metabolic Activation: HAMSTER LIVER S-9, AROCLOR 1254, 10%, Method: PREINCUBATION) was “inactive; negative” and the mutagenic call (Test System: AMES SALMONELLA TYPHIMURIUM, Strain/Indicator: TA1537, Metabolic Activation: NONE, Method: PREINCUBATION) was “inactive; negative”. For the same compound, the mutagenic call (Test System: AMES SALMONELLA TYPHIMURIUM, Strain/Indicator: TA1537, Metabolic Activation: RAT LIVER S-9, AROCLOR 1254, 10%, Method: PREINCUBATION) was “inactive; negative”, the mutagenic call (Test System: AMES SALMONELLA TYPHIMURIUM, Strain/Indicator: TA1537, Metabolic Activation: RAT LIVER S-9, PHENOBARBITAL AND BETA-NAPHTHOFLAVONE, Method: PREINCUBATION) was “inactive; negative” and the mutagenic call (Test System: E.COLI, Strain/Indicator: WP2UVRA, Metabolic Activation: NONE, Method: PREINCUBATION) was “inactive; negative”. The mutagenic call (Test System: E.COLI, Strain/Indicator: WP2UVRA, Metabolic Activation: RAT LIVER S-9, PHENOBARBITAL AND BETA-NAPHTHOFLAVONE, Method: PREINCUBATION) was “inactive; negative”, the mutagenic call (Test System: MOUSE LYMPHOMA, Strain/Indicator: L5178Y (TK+/TK-), Metabolic Activation: NONE, Method: SUSPENSION/PLATE) was “inactive; negative” and the mutagenic call (Test System: MOUSE LYMPHOMA, Strain/Indicator: L5178Y (TK+/TK-), Metabolic Activation: RAT LIVER S-9, AROCLOR 1254, Method: SUSPENSION/PLATE) was “inactive; negative”. The mutagenic call (Test System: UDS MOUSE HEPATOCYTES, Strain/Indicator: THYMIDINE INCORPORATION, Metabolic Activation: NONE, Method: IN VIVO/AUTORADIOGRAPHY) was “inactive; negative”.

`O=[N+]([O-])c1cccc2cnsc12` was tested, and the mutagenic call (Test System: AMES SALMONELLA TYPHIMURIUM, Strain/Indicator: TA100, Metabolic Activation: NONE, Method: STANDARD PLATE) was “active; positive”.

With `CC(C)COC(=O)Cc1ccccc1` the mutagenic call (Test System: AMES SALMONELLA TYPHIMURIUM, Strain/Indicator: TA97, Metabolic Activation: NONE, Method: PREINCUBATION) was “inactive; negative”, the mutagenic call (Test System: AMES SALMONELLA TYPHIMURIUM, Strain/Indicator: TA97, Metabolic Activation: RAT, LIVER, S-9, AROCLOR 1254, Method: PREINCUBATION) was “inactive; negative” and the mutagenic call [1] was “inactive; negative”. The mutagenic call [2] was “inactive; negative”.

From PubChem BioAssay AID1259407 (Chemical Carcinogenesis Research Information System (CCRIS), 2018)
